# US12064488B2, “Nitroxide containing amyloid binding agents for imaging and therapeutic uses” (The Regents of the University of California, priority 2015, dated 2024)
# Legend:
# [1] = tested on: MC65 neuroblastoma cell; assay: MC65 assay: protection against AB toxicity (MTT cell viability); type: cell-based, human; conditions: MC65 cells, TC removal, 3 days
# Source text: The ability of agents to protect against AB toxicity can be measured according to their effect on the survivability of MC65 neuroblastoma cell (Maezawa et al. (2008) J. Neurochem. 104:457). In the MC65 model system, expression of the C-terminal region (C99) of the amyloid precursor protein (APP) is turned on in the absence of the transgene suppressor, tetracycline (TC). Upon APP-C99 induction (TC-), AB is generated after proteolysis by cellular γ-secretase […]. In the absence of protection, death of MC65 neuroblastoma cells results due to the intracellular accumulation of oligomeric AB (ABO). […] In Table 2 below, we report the ability of the SL-LRL1, SL-LRL2, SL-Res1, SL-Res2, and SL-Res3 compounds to protect against AB toxicity in the MC65 assay.
# The cell culture model used for these studies was the human neuroblastoma cell line (MC65) equipped with conditional expression of the carboxyl-terminal 99 residues of the amyloid-beta precursor protein (APP-C99). AB is generated from APP-C99 after proteolysis by cellular γ-secretase. To induce cellular AB production, the transgene suppressor, tetracycline (TC), was removed from the media, as described previously (Maezawa et al. (2008)). Intracellular ABO starts to accumulate as early as 4 hours after TC removal. The compounds were added immediately after TC removal, and the cells were maintained for 3 days without media change before measuring cell viability. The cytotoxicity was determined on day 3 using a colorimetric MTT [3-(4,5-dimethylthiazol-2yl)-2,5-diphenyltetrazolium bromide] cell viability assay.
# [2] = biological target: T1, amyloid plaque (AB) in 5xFAD mouse brain slices (Homo sapiens, UniProt P05067); assay: T2/T2*-weighted MRI of coronal brain slices labeled in vitro with spin-labeled compound; conditions: 5xFAD brain slices/specimens incubated in vitro with compound
# T1 construct: produces elevated amyloid beta levels in the brain; from tissue; host or cells: brain of 5xFAD transgenic mice (400 µm coronal slices)
# Description: MR images of coronal brain slices (400 μm thick) were obtained from a transgenic AD mouse model (5xFAD) with and without exposure to HO-4160 nitroxide spin-labeled […] (SLF), where the SLF-negative sample was treated with DMSO vehicle equal to the SLF-exposed sample. Following the labeling period with either SLF or the DMSO vehicle control, the brain slices were imbedded into agarose and imaged by MRI. Measurements were made in three separate experiments, using slices from unique AD and wild type (WT) mice in each experiment.
# 5xFAD brain slices treated with SLF decrease in intensity to a mean value of 1.6±0.1×10^5, compared to the T2-weighted images of the untreated samples, with a mean value of 2.6±0.1×10^5. Evaluation of the two sets by the unpaired t-test supports a significant difference among these groups (p<0.01). With respect to T2*, there also is a significant (p<0.02) intensity difference between the two groups of 5xFAD specimens, with a mean intensity of 1.4±0.2×10^5 for the SLF-treated samples, and a mean intensity of 2.3±0.1×10^5 for the untreated samples. In addition, T2 and T2*-weighted imaging of corresponding slices from WT mice show no difference between the SLF-treated and SLF-negative (not shown) specimens.
# Both T2 and T2* signal suppression was calculated in each of the three experiments. The average suppression values were calculated according to the equation: SS %=[(SIref−SI)/SIref]*100 where SI is the average signal intensity of the 5xFAD SLF+ section and SIref is the average signal intensity of the 5xFAD SLF− or WT SLF+ section. Calculation results are plotted in FIG. 7, where both the gray and white bars represent the suppression of MRI intensity found in the 5xFAD specimen following SLF treatment. The gray bars show signal suppression relative to the untreated 5xFAD brain, while the white bars compare the suppression relative to the SLF-treated specimens from WT mice. Relative to both controls, SLF generates ˜40% signal suppression for samples carrying a high amyloid-beta load. In the absence of SLF, the average intensity of the 5xFAD brain sections have a slightly lower T2/T2* MRI intensity than specimens from WT mice. This can be attributed to iron bound to deposits of AB, which has been previously observed in the MRI analyses of AD model mice (Vanhoutte et al. (2005); Jack et al. (2007); and Wadghiri et al. (2012)). Thus, the relative suppression is slightly higher when comparing the +SLF AD sample to the +SLF WT sample.
# [3] = biological target: T2, amyloid (AB) in 5xFAD mouse brain tissue (Homo sapiens, UniProt P05067); assay: EPR spectroscopy of brain slices labeled in vitro; type: binding; conditions: 5xFAD brain tissue treated in vitro
# T2 construct: produces elevated amyloid beta levels in the brain; from tissue; host or cells: brain of 5xFAD transgenic mice (400 µm coronal slices)
# Source text: Samples were loaded into a quartz cell and examined by electron paramagnetic resonance (EPR) spectroscopy. […] Thus, in agreement with results from the MRI measurements, the lack of EPR signal from the WT+SLF brain section excludes non-specific binding of SLF in these tissue samples. […] The broad EPR spectrum from the +SLF 5xFAD reflects a strongly immobilized spin probe, consistent with high affinity binding to a solidified matrix.
# T1 sequence (P05067 672-713 limits assumed): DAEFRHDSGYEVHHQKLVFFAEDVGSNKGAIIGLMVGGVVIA
# T2 sequence (P05067 672-713 limits assumed): as above
Structure (SMILES),EC50 [1] [nM],contrast in T2*-weighted imaging [2],EPR signal / binding to brain tissue [3]
CC1(C)C=C(COc2cc(O)cc(/C=C/c3ccc(O)cc3)c2)C(C)(C)N1[O] [SL-Res1],450,ability to generate negative contrast,
"CC1(C)CC(NC(=O)COc2cc(O)cc(/C=C/c3ccc(O)cc3)c2)C(C)(C)N1[O] (centres unmarked) [SL-Res2, (E)-2-(3-hydroxy-5-(4-hydroxystyryl)phenoxy)-N-(2,2,5,5-tetramethyl-1-oxylpyrrolidin-3-yl)acetamide Radical]",680,ability to generate negative contrast,
"CC1(C)C=C(C(=O)Oc2ccc(/C=C/c3cc(O)cc(O)c3)cc2)C(C)(C)N1[O] [SL-Res3, (E)-4-(3,5-dihydroxystyryl)phenyl 2,2,5,5-tetramethyl-1-oxyl-2,5-dihydro-1H-pyrrole-3-carboxylate Radical]",410,ability to generate negative contrast,
"Cc1c(C(N)=O)c(=O)oc2cc3c(cc12)nc(NCCNC(=O)C1CC(C)(C)N([O])C1(C)C)n3Cc1cccc(I)c1 (centres unmarked) [SL-LRL1, 3-(3-iodobenzyl)-8-methyl-6-oxo-2-((2-(2,2,5,5-tetramethyl-1-oxylpyrrolidine-3-carboxamido)ethyl)amino)-3,6-dihydrochromeno[6,7-d]imidazole-7-carboxamide Radical]",4500,strong negative contrast,confirming the binding
"Cc1c(C(N)=O)c(=O)oc2cc3c(cc12)nc(NCC1=CC(C)(C)N([O])C1(C)C)n3Cc1cccc(I)c1 [SL-LRL2, 3-(3-iodobenzyl)-8-methyl-6-oxo-2-(((2,2,5,5-tetramethyl-1-oxyl-2,5-dihydro-1H-pyrrol-3-yl)methyl)amino)-3,6-dihydrochromeno[6,7-d]imidazole-7-carboxamide Radical]",3500,ability to generate negative contrast,
